US20100256136A1, “Method for Enhancing Pdt Efficacy Using a Tyrosine Kinase Inhibitor” (priority 2006, published 2010)
Structures can show the parent of a compound that is named as a salt.

Assays:
[1] = target: T1, ABCG2 (Homo sapiens, UniProt Q9UNQ0); conditions: literature (refs 8, 10); cited from earlier work
T1 sequence (Q9UNQ0 1-655): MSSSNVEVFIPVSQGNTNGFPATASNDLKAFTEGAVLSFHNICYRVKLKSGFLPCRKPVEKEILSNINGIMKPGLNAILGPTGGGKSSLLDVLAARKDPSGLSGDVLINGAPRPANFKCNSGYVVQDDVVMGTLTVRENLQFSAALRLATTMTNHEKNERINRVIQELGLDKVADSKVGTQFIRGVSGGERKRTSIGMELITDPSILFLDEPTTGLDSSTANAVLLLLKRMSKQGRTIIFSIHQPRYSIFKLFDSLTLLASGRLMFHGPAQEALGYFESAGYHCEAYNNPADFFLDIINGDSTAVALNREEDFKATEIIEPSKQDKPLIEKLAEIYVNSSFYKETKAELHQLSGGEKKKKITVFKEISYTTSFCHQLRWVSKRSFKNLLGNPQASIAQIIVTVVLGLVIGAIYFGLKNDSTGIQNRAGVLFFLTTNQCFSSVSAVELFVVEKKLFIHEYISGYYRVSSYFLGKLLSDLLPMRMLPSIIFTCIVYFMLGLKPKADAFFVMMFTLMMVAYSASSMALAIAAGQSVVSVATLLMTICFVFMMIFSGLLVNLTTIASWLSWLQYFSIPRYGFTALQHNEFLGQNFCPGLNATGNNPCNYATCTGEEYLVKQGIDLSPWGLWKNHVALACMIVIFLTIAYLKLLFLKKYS

[2] = test system: RIF-1 cells; assay type: cell-based, murine; conditions: for Increase of intracellular HPPH levels: 0.8 μM HPPH, 10 μM modulator, p<0.01
Description: (§1) Cells were plated in 6-well plates at a density of 3×10^5 cells per well and incubated overnight. […] Cells were cultured for an additional 4 hours, then washed with cold culture medium and with PBS. Photosensitizer levels were determined using Solvable® (Perkin Elmer, Boston, MA) extraction (17). Briefly, the cells were solubilized in 0.5 ml Solvable® at 37° C. overnight. The Solvable® extract then was diluted 1:1 with PBS, the photosensitizer levels were determined by fluorometry, and concentrations were extrapolated from standard curves. Intracellular photosensitizer levels were normalized to intracellular protein content. To study photosensitizer efflux, cells were incubated with photosensitizer for 4 hours, then washed once with cold medium, resuspended in drug-free medium, placed at 37° C. or 4° C. for 1 hour and washed once with cold PBS. Photosensitizer levels were then determined using Solvable® extraction, as above.

[3] = test system: RIF-1 cells; assay: In vitro PDT phototoxicity (MTT assay) with ABCG2 modulators; conditions: for Increase of HPPH-PDT phototoxicity: 10 μM modulator, high light doses
Description: Cells were plated in 96-well plates at a density of 1×10^4 cells per well. […] Cells were then irradiated with a filtered xenon arc lamp (600-700 nm) at a fluence rate of 14 mW/cm^2 for HPPH and BPD-MA, or with a red light (570-700 nm) at a fluence rate of 6.3 mW/cm^2 for ALA and Photofrin. Cell viability was evaluated by the 1,3-(4,5-dimethylthiazol-2-yl)-2,5-diphenyltetrazolium bromide (MTT) assay 48 hours after irradiation.

[4] = test system: Colo 26 cells; assay: Photosensitizer efflux, 1 h in drug-free medium at 37° C. or 4° C.; assay type: cell-based, murine; conditions: Colo 26 cells (ABCG2+), 1 h efflux
Description: as §1

[5] = test system: RIF-1 cells; assay: as above; assay type: cell-based, murine; conditions: RIF-1 cells (ABCG2+), 1 h efflux
Description: as §1

[6] = test system: BCC-1 cells; assay: as above; assay type: cell-based, human; conditions: BCC-1 cells (ABCG2+), 1 h efflux
Description: as §1

[7] = test system: FaDu cells; assay: as above; assay type: cell-based, human; conditions: lack ABCG2 expression, 1 h efflux
Description: as §1

[8] = test system: HEK-293 R482 cells (ABCG2+); assay: HPPH uptake and efflux in ABCG2-transfected cells; assay type: cell-based
From the text: (§2) In general known cell lines were used. FaDu human hypopharyngeal squamous cell carcinoma, RIF-1 murine radiation-induced fibrosarcoma and Colo 26 murine colon carcinoma cells were obtained from the American Type Culture Collection (ATCC; Manassas, VA). BCC-1/KMC, a human basal cell carcinoma cell line (14), was provided by Dr. Tak-Wah Wong, National Cheng Kung University Hospital, Tainan, Taiwan. HEK-293 cells transfected with either an empty pcDNA3 vector or a pcDNA3 vector containing full-length ABCG2 (HEK-293 pcDNA or HEK-293 […]) were provided by Dr. Susan Bates at the U.S. National Institute of Health, Bethesda, MD.. Cells were plated in 6-well plates at a density of 3×10^5 cells per well and incubated overnight. […] Cells were cultured for an additional 4 hours, then washed with cold culture medium and with PBS. Photosensitizer levels were determined using Solvable® (Perkin Elmer, Boston, MA) extraction (17). Briefly, the cells were solubilized in 0.5 ml Solvable® at 37° C. overnight. The Solvable® extract then was diluted 1:1 with PBS, the photosensitizer levels were determined by fluorometry, and concentrations were extrapolated from standard curves. Intracellular photosensitizer levels were normalized to intracellular protein content. […] Photosensitizer levels were then determined using Solvable® extraction, as above.

[9] = test system: HEK-293 pcDNA cells (ABCG2-); assay: HPPH efflux in empty-vector control cells; assay type: cell-based; conditions: HEK293-pcDNA3 cells
From the text: as §2

[10] = test system: ABCG2; assay: ABCG2 substrate status concluded from efflux and phototoxicity studies; assay type: cell-based; conditions: conclusion from efflux and phototoxicity data
Description: as §1

[11] = test system: HEK-293 pcDNA cells; assay: In vitro PDT phototoxicity (MTT assay) with ABCG2 modulators; assay type: cell-based; conditions: 0.8 μM HPPH
[12] = test system: RIF-1 tumors
Description: (§3) To determine photosensitizer levels, samples of tumor, skin and muscle tissue were harvested 24 hours after the HPPH administration and dissolved in Solvable at 63° C. overnight. HPPH levels were measured by fluorometry as described above. In other experiments mice were administered ^14C-labelled HPPH and photosensitizer levels in the harvested tissues were determined by scintillation counting. […] After 24 hours, the tumors were treated with 665 nm light from an argon ion laser-pumped dye laser (Spectra Physics, Mountain View CA) with a fluence of 72 J/cm^2 delivered at a rate of 14 mW/cm^2. […] Tumors were measured every 1 to 3 days, and mice were sacrificed when tumor volumes exceeded 400 mm^3.

[13] = test system: HEK-293 R482 cells; assay: Photosensitizer accumulation with ABCG2 modulators; assay type: cell-based; conditions: 10 μM modulator, 0.8 μM HPPH, four hours, p<0.05
Description: as §1

[14] = test system: HEK-293 pcDNA cells; assay: Photosensitizer accumulation with ABCG2 modulators; assay type: cell-based; conditions: 10 μM modulator, 0.8 μM HPPH, four hours
Description: as §1

[15] = test system: Colo 26 cells; assay: Photosensitizer accumulation with ABCG2 modulators; assay type: cell-based, murine; conditions: 0.8 mM ALA, with vs without imatinib mesylate
Description: as §1

[16] = test system: BCC-1 cells; assay: In vitro PDT phototoxicity (MTT assay) with ABCG2 modulators; assay type: cell-based, human; conditions: BCC-1 cells (ABCG2+), 0.4 μM HPPH, 10 μM imatinib mesylate
[17] = test system: FaDu cells; assay: as above; assay type: cell-based, human; conditions: FaDu cells (lack ABCG2), 0.8 μM HPPH, 10 or 20 μM imatinib mesylate
[18] = test system: Colo 26 cells; assay: as above; assay type: cell-based, murine; conditions: ALA, 10 μM imatinib mesylate
[19] = test system: RIF-1 tumors; assay: HPPH levels in tumor, skin and muscle of tumor-bearing mice; assay type: in vivo, C3H/HeJCr mice; conditions: same regimen as tumor levels, 24 hours after HPPH
Description: as §3

Compound: C=CC1=C(C)c2cc3[nH]c(cc4nc(cc5[nH]c(cc1n2)c(C)c5CCC(=O)O)C(CCC(=O)O)=C4C)c(C)c3C=C [5-aminolevulinic acid (ALA)-induced PpIX, protoporphyrin IX]
- Transport by ABCG2 [1]: transports

Compound: COc1ccc2c3c([nH]c2c1)[C@H](C=C(C)C)N1C(=O)[C@@H]2CCCN2C(=O)[C@@H]1C3 [FTC, fumitremorgin C]
- Increase of intracellular HPPH levels [2]: ~4 fold
- Increase of HPPH-PDT phototoxicity ([3]; 0.8 μM HPPH): ~2 logs

Compound: CCCCCCOC(C)c1c(C)c2cc3nc(c4c5[nH]c(cc6nc(cc1[nH]2)C(C)=C6CC)c(C)c5C(=O)C4)[C@@H](CCC(=O)O)[C@@H]3C (stereo partly shown) [HPPH, 2-[1-hexyloxyethyl]-2-devinyl pyropheophorbide-a]
- Intracellular HPPH level after efflux at 37° C. compared to 4° C. [4]: significantly (p<0.01) lower
- Intracellular HPPH level after efflux at 37° C. compared to 4° C. [5]: significantly (p<0.01) lower
- Intracellular HPPH level after efflux at 37° C. compared to 4° C. [6]: significantly (p<0.01) lower
- HPPH content following efflux at 37° C. and 4° C. [7]: did not differ significantly
- Intracellular HPPH level after efflux at 4° C. compared to 37° C. ([8]; HEK-293 R482 cells, 1 h efflux): significantly (p<0.05) higher
- HPPH levels after uptake (0 hour group), ABCG2- HEK-293 pcDNA3 cells compared to ABCG2+ HEK-293 R482 cells ([8]; after 4 h uptake): significantly (p<0.05) higher
- Temperature-dependent changes in efflux of HPPH [9]: no temperature-dependent changes
- Substrate for ABCG2 [10]: ABCG2 substrate
- Sensitivity to HPPH-PDT, HEK-293 pcDNA cells compared to HEK-293 R482 cells ([11]; no modulator): more sensitive
- Time for 50% of the tumors to grow to 400 mm^3 ([12]; HPPH-PDT treatment alone: 0.2 μmol/kg HPPH, 24 hours later 72 J/cm^2 665 nm light at 14 mW/cm^2): 6 days

Compound: C=Cc1c(C)c2cc3nc(c(CC(=O)O)c4[nH]c(cc5nc(cc1[nH]2)C(C)=C5CC)c(C)c4C(=O)O)[C@@H](CCC(=O)O)[C@@H]3C [chlorin e6]
- Transport by ABCG2 [1]: transports

Compound: COc1cc2ncnc(Nc3ccc(F)c(Cl)c3)c2cc1OCCCN1CCOCC1 [gefitnib, N-(3-chloro-4-fluoro-phenyly)-7-methoxy-6(3-morpholin-4-ylpropoxy) quinazolin-4-amine]
- Effect on HPPH-PDT phototoxicity ([3]; 0.8 μM HPPH, CsA 10 μM, gefitinib 5 μM): effective
- Dark toxicity ([3]; 5 μM): significant dark toxicity

Compound: Cc1ccc(NC(=O)c2ccc(CN3CCN(C)CC3)cc2)cc1Nc1nccc(-c2cccnc2)n1 [imatinib mesylate, 4[(4-methyl-1-piperazininyl)methyl]-N-(4-methyl-3-[(4-(3-pyidinyl)-2-pyrimidinyl)amino)-phenyl] benzamide methane sulfonate]
- Effect on intracellular HPPH levels [13]: increased
- Effect on HPPH accumulation [14]: no effect
- Effect on intracellular levels of BPD-MA ([2]; 0.14 μM BPD-MA, with vs without imatinib mesylate): increased
- Increase of intracellular HPPH levels [2]: ~4 fold
- Effect on intracellular levels of ALA-induced PpIX [15]: increased
- Effect on sensitivity to HPPH-PDT ([11]; HEK-293 pcDNA3 cells, pretreatment with 10 μM): no effect
- Effect on HPPH-PDT phototoxicity [16]: increased
- Effect on HPPH-PDT phototoxicity [17]: not
- Effect on phototoxicity of PpIX [18]: increased
- Effect on HPPH levels in skin and muscle [19]: less effect
- Anti-tumor effects of imatinib mesylate alone, without PDT ([12]; brief course, 4 x 200 mg/kg oral gavage): no anti-tumor effects
- Observable toxicity ([12]; mouse, in vivo): no observable toxicity
- Effect on phototoxicity of BPD-MA ([3]; 0.14 μM BPD-MA, 10 μM imatinib mesylate): increased
- Increase of HPPH-PDT phototoxicity ([3]; 0.8 μM HPPH): ~2 logs
- Effect on phototoxicity of HPPH-lactose-PDT ([3]; 1.6 μM HPPH-Lactose, 10 μM imatinib mesylate): did not increase
- Effect on phototoxicity of Photofrin-PDT ([3]; 2 μg/ml Photofrin, 10 μM imatinib mesylate): did not increase

Compound: C=Cc1c(C)c2cc3nc(c4c5[nH]c(cc6nc(cc1[nH]2)C(C)=C6CC)c(C)c5C(=O)[C@@H]4C(=O)OC)[C@@H](CCC(=O)O)[C@@H]3C [pheophorbide α]
- Transport by ABCG2 [1]: specific substrate

Compound: pyropheophorbide-a methyl ester
- Transport by ABCG2 [1]: transports
